Test system: Cl^− channel
Assay: Whole-cell Cl^− current recording (patch-clamp) in rat cardiac myocytes
Format: cell-based
Conditions: rat left ventricle cardiac myocytes, currents measured at plateau level, 30 μM nifedipine in bath
Description: FIG. 4: Channels with 3 different current types were found. (A) A small-conductance inwardly rectifying channel (ClSIR). (B) A large-conductance inwardly rectifying channel (ClLIR). (C) An outwardly rectifying channel (ClOR). For each type of channel, a family of currents at different voltages (on the left side of the panels), current-voltage characteristics (on the top right side of the panels) and channel densities at different surface positions (on the bottom right side of the panels) are shown. The mean reversal potential was −31.2±2.4 mV (n=5) for (A)−31.8±3.4 mV (n=5) for (B) and −33.5±3.0 mV (n=4) for (C). (D) Calculated whole-cell current extrapolated from single-channel currents. (E) Current-voltage characteristics of experimental whole-cell currents obtained from 22 cells (black circles). […] Currents were measured at plateau level.
Left ventricle cells from the rat myocardium were isolated as previously described (Harding et al, J. Mol. Cell Cardiol. 20:635–647, 1988). Cells were allowed to attach to polystyrene cell culture dishes filled with bath solutions.
the bath solution contained (in mM) K-glutamate 120, KCl 25, MgCl2 2, CaCl2 1, EGTA 2, glucose 10 and HEPES 10, adjusted to pH 7.4 with CsOH. The pipette backfill solution contained N-methyl-D-glucamine-Cl (NMDG-Cl) 108, HEPES 5, glucose 5.5 and EGTA 1, adjusted to pH 7.4 with TEA-OH. […]

## [Cd+2] [Cd^2+]
1 mM, n=5
  Block of experimental whole-cell Cl^− currents: almost completely blocked

## CC(=O)Nc1ccc(C=Cc2ccc(N=C=S)cc2S(=O)(=O)O)c(S(=O)(=O)O)c1 [SITS, stilbene disulfonate]
300 μM, n=12
  Block of experimental whole-cell Cl^− currents: partially blocked

From patent US7057171B2, “Patch-clamping and its use in analyzing subcellular features” (priority 2001, dated 2006)
